Measurements: ChEMBL document CHEMBL1125472, “5-lipoxygenase: properties, pharmacology, and the quinolinyl(bridged)aryl class of inhibitors” (J Med Chem, 1992)
One block for each compound: values may come before it.

Key:
[1] = molecular target: T1, Polyunsaturated fatty acid 5-lipoxygenase (Homo sapiens, UniProt P09917)
T1 sequence (P09917 whole entry): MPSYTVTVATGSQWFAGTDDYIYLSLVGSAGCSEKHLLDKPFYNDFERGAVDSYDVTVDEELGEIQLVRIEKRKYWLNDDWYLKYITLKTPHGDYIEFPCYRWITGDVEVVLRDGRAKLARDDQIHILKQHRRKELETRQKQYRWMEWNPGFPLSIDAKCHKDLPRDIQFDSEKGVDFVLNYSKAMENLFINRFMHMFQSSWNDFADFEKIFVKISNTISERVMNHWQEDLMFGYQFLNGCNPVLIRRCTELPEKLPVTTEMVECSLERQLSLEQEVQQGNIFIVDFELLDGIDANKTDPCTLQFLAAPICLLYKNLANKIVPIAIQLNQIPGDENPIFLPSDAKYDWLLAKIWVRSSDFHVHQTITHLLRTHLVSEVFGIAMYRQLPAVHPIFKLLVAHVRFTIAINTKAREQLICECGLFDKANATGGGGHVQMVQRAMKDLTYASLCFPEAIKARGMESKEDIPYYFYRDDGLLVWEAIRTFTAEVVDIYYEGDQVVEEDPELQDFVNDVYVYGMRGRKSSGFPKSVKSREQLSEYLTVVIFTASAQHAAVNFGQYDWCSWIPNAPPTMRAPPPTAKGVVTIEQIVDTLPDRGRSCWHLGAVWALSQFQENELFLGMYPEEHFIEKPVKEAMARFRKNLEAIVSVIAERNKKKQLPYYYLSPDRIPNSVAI
Description: The compound was tested for inhibitory activity against 5-Lipoxygenase in human polymorphonuclear leukocytes[PMNS]

[2] = molecular target: T2, Polyunsaturated fatty acid 5-lipoxygenase (Rattus norvegicus, UniProt P12527); assay: The compound was tested for inhibitory activity against 5-Lipoxygenase in rat RBL-1; assay type: cell-based
T2 sequence (P12527 whole entry): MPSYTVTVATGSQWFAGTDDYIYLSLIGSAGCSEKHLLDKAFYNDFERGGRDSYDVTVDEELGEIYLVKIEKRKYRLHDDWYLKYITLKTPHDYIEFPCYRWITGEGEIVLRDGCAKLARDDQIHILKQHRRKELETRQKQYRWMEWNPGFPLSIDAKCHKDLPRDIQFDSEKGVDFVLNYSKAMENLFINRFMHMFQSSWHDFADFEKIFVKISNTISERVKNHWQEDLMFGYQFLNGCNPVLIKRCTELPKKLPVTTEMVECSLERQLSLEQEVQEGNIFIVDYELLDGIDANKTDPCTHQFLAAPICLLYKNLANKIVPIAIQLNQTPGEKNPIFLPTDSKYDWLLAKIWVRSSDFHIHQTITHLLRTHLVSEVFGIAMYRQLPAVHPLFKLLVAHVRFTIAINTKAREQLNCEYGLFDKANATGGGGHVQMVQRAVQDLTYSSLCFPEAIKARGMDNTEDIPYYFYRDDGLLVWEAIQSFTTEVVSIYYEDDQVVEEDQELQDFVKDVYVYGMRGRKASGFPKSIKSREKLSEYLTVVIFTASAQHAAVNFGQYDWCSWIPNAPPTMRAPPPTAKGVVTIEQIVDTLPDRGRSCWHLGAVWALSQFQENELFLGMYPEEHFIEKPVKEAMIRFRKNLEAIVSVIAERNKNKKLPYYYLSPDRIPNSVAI

[3] = molecular target: T3, Polyunsaturated fatty acid 5-lipoxygenase (Rattus norvegicus) (UniProt P12527); assay: The compound was tested for inhibition against 5-lipoxygenase in rat polymorphonuclear leukocytes[PMNS] at 10 uM concentration; assay type: cell-based
T3 sequence (whole entry): T2 sequence (P12527 whole entry)

[4] = molecular target: Cyclooxygenase (Rattus norvegicus) (UniProt P35355+Q63921); assay: The compound was tested for inhibition against Prostaglandin G/H synthase in rat polymorphonuclear leukocytes[PMNS] at 10 uM concentration; assay type: cell-based
[5] = molecular target: T2, Polyunsaturated fatty acid 5-lipoxygenase; assay: The compound was tested for inhibitory activity against 5-lipoxygenase in rat polymorphonuclear leukocytes[PMNS]; assay type: cell-based
[6] = molecular target: T2, Polyunsaturated fatty acid 5-lipoxygenase; assay: The compound was tested for inhibitory activity against 5-Lipoxygenase in rat polymorphonuclear leukocytes[PMNS]; assay type: cell-based
Cavia porcellus [7] = species on record: Cavia porcellus; assay: The effective dose for inhibition of LTD4-induced contractions of guinea pig trachea; assay type: functional
Cavia porcellus [8] = species on record: Cavia porcellus; assay: The compound was tested for binding affinity against guinea pig lung membrane using [3H]LTD4 as radioligand
Cavia porcellus [9] = assay: The compound was tested for inhibition of LTD4 response in guinea pig bronchoconstriction assay after intraduodenal administration (30 mg/kg)
Cavia porcellus [10] = species on record: Cavia porcellus; assay: The compound was tested for inhibitory activity against LTD4-induced contractions of guinea pig ileum; assay type: functional
Cyclooxygenase = molecular target: T4, Cyclooxygenase (Rattus norvegicus, UniProt P35355+Q63921); assay: The compound was tested for inhibitory activity against Prostaglandin G/H synthase in rat polymorphonuclear leukocytes[PMNS]; assay type: cell-based
T4 sequence (P35355 whole entry): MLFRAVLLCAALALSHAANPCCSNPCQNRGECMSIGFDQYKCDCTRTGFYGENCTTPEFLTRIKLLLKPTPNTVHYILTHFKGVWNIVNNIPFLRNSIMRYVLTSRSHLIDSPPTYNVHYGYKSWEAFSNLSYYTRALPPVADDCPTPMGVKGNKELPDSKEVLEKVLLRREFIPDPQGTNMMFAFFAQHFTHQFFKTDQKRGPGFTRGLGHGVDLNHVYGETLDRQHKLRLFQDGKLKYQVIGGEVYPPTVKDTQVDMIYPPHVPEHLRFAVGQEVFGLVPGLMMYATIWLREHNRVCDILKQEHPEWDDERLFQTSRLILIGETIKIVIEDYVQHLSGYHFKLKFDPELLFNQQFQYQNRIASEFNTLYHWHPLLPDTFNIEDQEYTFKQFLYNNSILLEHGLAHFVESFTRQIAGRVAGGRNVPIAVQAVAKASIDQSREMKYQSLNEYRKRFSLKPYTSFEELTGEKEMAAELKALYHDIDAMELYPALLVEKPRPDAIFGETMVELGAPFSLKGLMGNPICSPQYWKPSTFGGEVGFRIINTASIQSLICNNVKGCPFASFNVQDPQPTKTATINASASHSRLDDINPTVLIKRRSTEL
T4 sequence (Q63921 whole entry): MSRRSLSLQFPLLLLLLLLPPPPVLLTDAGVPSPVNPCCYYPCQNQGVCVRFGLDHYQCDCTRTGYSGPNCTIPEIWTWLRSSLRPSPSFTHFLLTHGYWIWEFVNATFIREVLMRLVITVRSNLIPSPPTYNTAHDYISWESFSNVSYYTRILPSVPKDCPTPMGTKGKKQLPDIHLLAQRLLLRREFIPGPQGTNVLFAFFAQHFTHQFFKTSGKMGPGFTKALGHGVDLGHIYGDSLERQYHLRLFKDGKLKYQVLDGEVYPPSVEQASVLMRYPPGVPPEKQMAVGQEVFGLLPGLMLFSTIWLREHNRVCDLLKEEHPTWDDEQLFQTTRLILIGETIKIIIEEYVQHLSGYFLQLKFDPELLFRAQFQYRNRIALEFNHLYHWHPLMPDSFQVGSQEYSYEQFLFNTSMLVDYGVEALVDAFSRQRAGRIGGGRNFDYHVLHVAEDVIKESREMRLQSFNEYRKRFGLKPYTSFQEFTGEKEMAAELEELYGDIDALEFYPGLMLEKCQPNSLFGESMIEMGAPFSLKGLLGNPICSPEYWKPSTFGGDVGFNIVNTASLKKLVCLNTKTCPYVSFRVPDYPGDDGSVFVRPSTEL

[11] = The effective dose for inhibition of LTD4-induced wheal formation after oral administration; assay type: functional
[12] = The effective dose for inhibition of anaphylactic death after oral administration; assay type: functional
[13] = Compound was tested for spasmogenic activity of LTD4 on lung strips; assay type: functional
[14] = Compound was tested for spasmogenic activity of LTE4 on lung strips; assay type: functional
[15] = Compound was tested for spasmogenic activity of LTC4 on lung strips; assay type: functional
Rattus norvegicus = species on record: Rattus norvegicus; assay: The compound was tested for inhibition of [3H]LTD4 binding to lung membrane; assay type: functional
[16] = The compound was tested for inhibitory activity against Leukotriene B4 receptor in mouse mastocytoma

IC50 [1]: 100 nM
Structure (SMILES): CSc1ccccc1/C=C/C(=O)N(C)O

IC50 [2]: 150 nM
Structure (SMILES): COc1ccc(-n2nc(CCC(=O)N(C)O)cc2-c2ccc(Cl)cc2)cc1 [TEPOXALIN]

Inhibition [3]: 91% | Inhibition [4]: 47%
Structure (SMILES): CCc1cc(OCc2ccc3ccccc3n2)cc2c3c([nH]c12)C(CC)(CC(=O)O)OCC3 (stereo not given)

IC50 [2]: 500 nM
Structure (SMILES): COc1c(OC)c(OC(C)=O)c2cc(Cl)ccc2c1OC(C)=O [LONAPALENE]

IC50 [5]: 2000 nM
Structure (SMILES): CCN(CC)C(=O)N(C)C[C@H](O)c1cccc(OCc2ccc3ccccc3n2)c1

IC50 [6]: 3900 nM
Structure (SMILES): Cc1ccc(S(=O)(=O)NC(=O)c2cccc(OCc3ccc4ccccc4n3)c2)cc1
ED50 (Cavia porcellus [7]): 3 mg/kg

IC50 [5]: 32000 nM
Structure (SMILES): CCCc1c(OCC(O)COc2cccc(NC(=O)C(=O)OCC)c2C#N)ccc(C(C)=O)c1O (stereo not given)

Ki (Cavia porcellus [8]): 700 nM
Structure (SMILES): CCCCCC(O)c1cccc(OCc2ccc3ccccc3n2)c1 (stereo not given) [REV-5901]
Inhibition (Cavia porcellus [9]): 74%

IC50 (Cavia porcellus [10]): 3 nM | IC50 [5]: 10000 nM | IC50 (Cyclooxygenase): 2000 nM
Structure (SMILES): O=C(O)c1ccccc1Nc1cccc(OCc2ccc3ccccc3n2)c1 [SR-2640]

Inhibition [3]: 96%
Structure (SMILES): O=C(O)CCc1nc(-c2ccc(OCc3ccc4ccccc4n3)cc2)c(-c2ccccc2)o1

Structure (SMILES): c1ccc(Cc2nn[nH]n2)c(COc2ccc(OCc3ccc4ccccc4n3)cc2)c1 [RG-12525]
ED50 [11]: 5 mg/kg | ED50 [12]: 2.2 mg/kg | Kb [13]: 2.7 nM | Kb [14]: 2.7 nM | Kb [15]: 2.7 nM | Ki (Rattus norvegicus): 3 nM

IC50 [16]: 320 nM
Structure (SMILES): CCOC(=O)Oc1ccc(/C=C/C=C/C(=O)NCCN2CCC(OC(c3ccccc3)c3ccccc3)CC2)cc1OC [LINETASTINE]

IC50 [5]: 6200 nM | IC50 (Cyclooxygenase): 13400 nM
Structure (SMILES): c1cc(Cc2nnn[nH]2)cc(OCc2ccc3ccccc3n2)c1
ED50 (Cavia porcellus [7]): 0.4 mg/kg
